Source: article PMC9389804 (Journal of Hematology & Oncology, 2022)

How the values were obtained:
[1] = pharmacokinetics, plasma concentration-time curves (phase 1); format: in vivo, human
Experimental: The phase 1 study included pharmacokinetic analyses, for which blood samples were collected on Cycle 1 Day 1-2 (C1D1-[…]) and […]-[…]. Blood samples were collected on C1D1 before dosing (baseline) as well as at 8 and 24 h after dosing on C1D1, C1D15, and […]. For pharmacodynamic evaluations, phosphorylated CRK-like (pCRKL) adaptor protein in peripheral blood mononuclear cells was assayed as a biomarker of BCR-ABL1 inhibition.

[2] = phase 1 dose escalation (DLT, MTD, RP2D); format: in vivo
Experimental: This was a phase 1/2, open-label, two-part study. […] Each cohort was assessed for safety over a treatment cycle of 28 days before enrolling the next cohort, in order to identify the maximum tolerated dose (MTD), or the dose at which the dose-limiting toxicity (DLT) occurred in no more than 33.0% of patients during the first cycle. […] In the event of a lack of efficacy, the study permitted intrapatient dose escalation unless the olverembatinib regimen exceeded MTD. After that, dose expansion cohorts at targeted doses were initiated. The primary endpoint within the phase 1 study was the recommended phase 2 dose (RP2D), and the Chinese Clinical Trial Registry (www.chictr.org.cn) identifier was ChiCTR1900027568.

Cc1ccc(C(=O)Nc2ccc(CN3CCN(C)CC3)c(C(F)(F)F)c2)cc1C#Cc1cnc2[nH]ncc2c1 [olverembatinib]
systemic exposure and maximum concentration (dose proportionality) ([1]; 1-60 mg QOD): approximately dose proportional
accumulation with multiple dosing ([1]; C1D27): slight to moderate accumulation
half-life ([1]; human, oral, plasma, Days 1 and 27, 1-60 mg QOD, read-out: mean terminal elimination half-life): 1050 to 2190 min
pharmacokinetics (linearity) ([1]; plasma concentration-time curves, Days 1 and 27): linear
maximum tolerated dose (MTD) ([2]; QOD, 33 patients in dose escalation): 50 mg
dose-limiting toxicity (DLT) ([2]; in vivo): no DLT was observed
